Results taken from publication PMC10451034, “Highly Efficient Photosensitizers with Molecular Vibrational Torsion for Cancer Photodynamic Therapy” (ACS Central Science, 2023).
“Also recorded” adds a separate entry of the source.

Experiments:
HepG2 cells = assay: Lactate dehydrogenase (LDH) release into cell culture medium; type: cell-based, human; details: under irradiation
Procedure: Next, in order to verify the disruption effect on cell structural integrity of the ^1O2 generation by QTCy7-R under irradiation, JC-1 staining imaging was conducted to monitor the mitochondria membrane potential. […] On the other hand, cell membrane damage caused by the photooxidation of QTCy7-Ac and QTCy7-CHO could be confirmed by a visualized observation. […] Furthermore, the lactate dehydrogenase (LDH) content in cell culture medium was measured to characterize the extent of cell membrane damage.[49]
(§1) QTCy7-Ph, (e) QTCy7-Ac, (f) QTCy7-CHO, (g) TCy7 and (h) MB under 660 nm irradiation (4 mW/cm2) in PBS. (i) The relative singlet oxygen yield of different compounds in PBS.
(§2) Figure S19. (a) The cellular uptake of QTCy7-R in HepG2 cells (QTCy7-Me/QTCy7-Ph: λex = 640 […]
(§3) μm). (b) The fluorescence intensity of QTCy7-R in cell at different time. (c) The LDH release rate of cells under different treatment conditions.
(§4) Figure S20. The enlarged images of (a) QTCy7-Ac and (b) QTCy7-CHO caused cell membrane destruction at 0 min and 4 min. Yellow arrows indicate the formation of distinct bubble-like structures on cell membrane. (λex = 640 nm, λem = 650-750 nm, scale bars: 20 μm). […]

[1] = system: human mammary carcinoma (MCF7); assay: MTT cytotoxicity assay, MCF7; type: cell-based; details: light or radiation study, MCF7, 660 nm irradiation 12 J/cm^2
Procedure: (§5) DMEM medium was replaced with saline to prevent false positive interference. Then the cells were exposed to different following treatments: 1) cells incubated with PBS; 2) cells incubated with PBS under 660 nm irradiation (20 mW/cm2, 10 min); 3) cells incubated with QTCy7-R; 4) cells incubated with QTCy7-R under 660 nm irradiation (20 mW/cm2, 10 min). After being different treated, the cells were stained with Calcein-AM and Propidium Iodide (PI) according to the manufacture instruction. Then the confocal fluorescence imaging was carried out and recorded with a 10 × objective lens.
(§6) Cytotoxicity was tested by the reduction of methyl thiazolyl tetrazolium to formazan by succinic acid dehydrogenase in the mitochondria of living cells (MTT assay). […] The MTT solution was carefully removed and 100 μL DMSO was added to dissolve formazan, and the absorbance of each well was measured by a multifunctional microplate reader at 570 nm and 630 nm. […]
(§7) Where “OD” represent the absorbance at 570 nm and 630 nm, “ps” and “control” represent experimental groups and control groups, respectively. […]
(§8) And the fluorescence signals were monitored at different post -injection time by a NightOWL II LB983 small animal in vivo imaging system (German). […]

[2] = system: murine mammary carcinoma cells (4T1); assay: MTT cytotoxicity assay, 4T1; type: cell-based; details: Mus musculus, light or radiation study; 4T1, 660 nm irradiation 12 J/cm^2
Procedure: as §5, §6, §7, §8

[3] = Singlet oxygen yield in PBS with singlet oxygen sensor green (SOSG); type: physicochemical; details: 660 nm irradiation
Procedure: In order to further investigate the PDT ability of QTCy7-R on cancer cells, the UV–vis absorption and emission spectra and ^1O2 production capacity of QTCy7-R were tested in phosphate-buffered solution (PBS) to better mimic the cellular environment. […] Meanwhile, the fluorescence quenching of QTCy7-Ph and QTCy7-CHO also confirmed their aggregation in aqueous solution compared to the intense fluorescence emission of QTCy7-Ac. Furthermore, singlet oxygen sensor green (SOSG) was selected to investigate the ^1O2 quantum yield in PBS.
as §1, §2, §3, §4

[4] = system: 4T1 subcutaneous solid tumor; assay: In vivo fluorescence imaging of 4T1 tumor-bearing mice; set-up: species or system BALB/c mice
From the text: The prospective in vitro results prompted us to further explore in vivo application possibility of QTCy7-Ac, and a solid tumor model of BALB/c mice was established by inoculating 4T1 cells subcutaneously under the armpit (Figure 10a). All the BALB/c mice were purchased from Liaoning Changsheng Biotechnology Co., Ltd., and the animal experiments were approved by the Local Scientific Research Ethics Review Committee of the Animal Ethics Committee of Dalian University of Technology (ID no. // Ethics Approval No. 2021-043). When the tumor volume reached 100 mm^3, fluorescence imaging was performed at different time points after intravenous injection of QTCy7-Ac. […] To test this hypothesis, the mice were executed and dissected 2.5 h after intravenous injection, and the fluorescence imaging of the main organs and tumor was performed.
DMEM medium was replaced with saline to prevent false positive interference. […] Then the confocal fluorescence imaging was carried out and recorded with a 10 × objective lens.
as §6

CCOC(=O)C1=C/C(=C\C=C2/Sc3ccccc3N2CC)C(=O)C(/C=C/c2sc3ccccc3[n+]2CC)=C1 [QTCy7-Ac]
LDH release rate (HepG2 cells): about 70%
IC50 [1]: ~600 nM
IC50 [2]: ~500 nM
1O2 quantum yield relative to MB [3]: 5.8 times
time at which tumor region is lit up ([4]; after intravenous injection, 200 μM 100 μL): around 60 min
route of metabolism / organ distribution by ex vivo fluorescence ([4]; organs and tumor 2.5 h after intravenous injection): metabolized primarily through the kidney; also recorded: non-negligible fluorescence signal stronger than the liver
